Measured values: patent US12459931B2, “Benzothiophene derivative regulator, preparation method therefor and use thereof” (Shanghai Hansoh Biomedical Co., Ltd., priority 2019, dated 2025)

Tests used:
[1] = Stability assay in liver microsome in vitro; assay type: in vitro ADME, Mouse
Method: IV. Stability Assay in Liver Microsome In Vitro
To evaluate the metabolic stability of the compounds of the present invention in liver microsome in vitro.
Formulation of the working solution of the compound: 2 μL of the stock solution of the compound was added to 998 μL of phosphate buffer, and the final concentration was 20 μM.
Formulation of the working solution of the control compound (7-hydroxycoumarin): The formulation was consistent with that of the compound. • 3.2. Formulation of the working solution of liver microsome
78.1 μL of 20 mg/mL microsome was diluted to 2.5 mL with 100 mM phosphate buffer and mixed well, and the final concentration was 0.625 mg/mL. • 3.3. Formulation of NADPH and UDPGA
33.3 mg of NADPH and 25.8 mg of UDPGA were weighed respectively, followed by the addition of 2 mL of 100 mM phosphate buffer. The final concentrations were 20 mM. • 3.4. Formulation of the channel-forming reagent (Alamethicin)
1 mg of Alamethicin was weighed, to which 200 μL of DMSO was added to obtain a 5 mg/mL solution. 10 μL of this solution was added to 990 μL of phosphate buffer (pH 7.4), and the final concentration was 50 μg/mL. • 3.5. Formulation of the reaction stop solution
Stop solution: Cold acetonitrile containing 100 ng/mL labetalol hydrochloride and 400 ng/mL tolbutamide was used as internal standards, and stored in a refrigerator at 2 to 8° C. • 3.6. Incubation procedure
400 μL of the formulated liver microsome, 25 μL of the working solution of the compound […] and 25 μL of Alamethicin (50 μg/mL) were added to a 96-well plate successively, which was then pre-incubated at 37° C. for 10 min. 50 μL of the formulated NADPH/UDPGA was added to initiate the reaction, and the plate was incubated at 37° C. The total volume of the reaction system was 500 μL. The final contents of the components were as follows:
[…] The resulting sample was centrifuged at 4000 g for 10 min, and the supernatant was collected for LC-MS/MS analysis.

D3 receptor = D3 receptor (Homo sapiens (Human), UniProt P35462); test: Effect on cAMP content in cells stably expressing D3 receptors (CHO-D3); assay type: cell-based; conditions: forskolin stimulated, activation
Method: To determine the activation effect of the compounds on D3 receptor.
3. The experimental buffer (1*HBSS, 0.1% BSA, 20 mM HEPES and 500 μM IBMX) was prepared. The compound was diluted with the buffer. 2.5 μL of the compound solution was added to each well, and the plate was incubated at 37° C. for 10 minutes. The forskolin was diluted to 8 μM (8*) with the experimental buffer. […] The reaction plate was centrifuged at 200 g for 30 s at room temperature, and left to stand at 25° C. for 1 h. Data was collected using Envision.

Rats F344 = test: Pharmacodynamic model of active escape experiment in rats; assay type: in vivo; conditions: oral, dose 1 mg/kg, one hour before the test
Method: V. Pharmacodynamic Model of Active Escape Experiment in Rats
To evaluate the anti-schizophrenic effect of the compounds using the pharmacodynamic model of the active escape experiment in rats.
4. Formulation of the Vehicle and Compounds: • 4.1 Vehicle (0.5% CMC-Na+1% Tween80)
A certain mass (such as 1.0 g) of CMC-Na was weighed into a glass bottle, a certain volume (such as 200 mL) of purified water was added, and the resulting mixture was stirred to disperse evenly. 1% (v/v) Tween 80 was added according to the solution volume, and the resulting mixture was stirred overnight to obtain a homogeneous clear solution, which was stored at 2 to 8° C. for later use. • 4.2 Formulation of the compounds: […]
A formula amount of the compound was weighed, followed by the addition of a formula volume of 0.5% CMC-Na+1% Tween 80 solution. The compound solution was formulated before the administration, stored at 2 to 8° C., and used within 4 days.
The day before the compound screening test, a baseline test was performed. The test procedure was the same as 5.1.1 to 5.1.3, and the number of the baseline test was 20. The animals whose number of avoids reached 16 (80%) were grouped according to the number of avoids, 10 animals per group. The first group was administered with the vehicle orally, and the other groups were administered with the corresponding test compounds according to the experimental design. • 5.3 Compound screening test
The compound was administered orally (5 mL/kg) one hour before the test;
The test procedure was the same as 5.1.1 to 5.1.4, and the number of the test was 20.
The following data was collected by the software for data analysis: • Number of avoids of the animal; • Number of escape failures of the animal; • Escape latency of the animal;
All measurement data were expressed as mean±standard error (Mean±SEM), and analyzed by Graphpad 6 statistical software. The difference was considered to be significant when p<0.05.

[2] = Toxicity test by repeated intragastric administration for 14 days in SD rats (with toxicokinetics); assay type: in vivo, Sprague-Dawley (SD) rats; conditions: both sexes, Sprague-Dawley, rat, in vivo, po; SD rats, intragastric once a day for two weeks; read-out: Maximum tolerated dose (MTD)
Description: (§1) VI. Toxicity Test by Repeated Intragastric Administration for 14 Days in SD Rats
(§2) The objective of this study was to investigate the possible toxicity of compounds after repeated intragastric administration to SD rats for 14 days. • 6.2 Experimental materials and instruments: • 6.2.1 Test compound
(§3) Test compound 1: the compound of Example 42. • 6.2.2 Vehicle:
(§4) Name: 0.5% CMC-Na (1% tween80) aqueous solution • 6.2.3 Animal information:
(§5) Species & strain: Sprague-Dawley (SD) rats
(§6) […] were divided into […] according to their sex and body weight. 40 rats were used for toxicology study (groups 1 to 4, 5 rats/sex/group), and 24 rats were used for toxicokinetics study (groups 5 to 8, 3 rats/sex/group). The animals in groups 1 and 5 were intragastrically administered with 0.5% CMC-Na (1% tween80) aqueous solution as the vehicle control groups. The animals in groups 2 and 6, 3 and 7, 4 and 8 were intragastrically administered with the compound of Example 42 at a dose of 2, 10 and 30 mg/kg, respectively. The animals were administered once a day for 14 consecutive days. The administration volumes were 10 mL/kg. During the experiment, clinical observation, body weight, food intake, body temperature, clinicopathological indicators (blood cell count, coagulation function, blood biochemistry) and toxicokinetics were monitored. All animals were euthanized on D15. During the experiment, the animals in groups 1 to 4 were subjected to gross anatomical observation. Histopathological examination was carried out on abnormal tissue and brain, kidney, adrenal gland, lung and bronchi, prostate, testis and epididymis. • 6.4 List of test data • 6.4.1 Dying/death

SD rats = test: as above; assay type: in vivo, Sprague-Dawley (SD) rats
Description: as §1, §2, §3, §4, §5, §6

[3] = SD rats, 2, 10 or 30 mg/kg, two weeks

Sequence of D3 receptor (P35462 whole entry): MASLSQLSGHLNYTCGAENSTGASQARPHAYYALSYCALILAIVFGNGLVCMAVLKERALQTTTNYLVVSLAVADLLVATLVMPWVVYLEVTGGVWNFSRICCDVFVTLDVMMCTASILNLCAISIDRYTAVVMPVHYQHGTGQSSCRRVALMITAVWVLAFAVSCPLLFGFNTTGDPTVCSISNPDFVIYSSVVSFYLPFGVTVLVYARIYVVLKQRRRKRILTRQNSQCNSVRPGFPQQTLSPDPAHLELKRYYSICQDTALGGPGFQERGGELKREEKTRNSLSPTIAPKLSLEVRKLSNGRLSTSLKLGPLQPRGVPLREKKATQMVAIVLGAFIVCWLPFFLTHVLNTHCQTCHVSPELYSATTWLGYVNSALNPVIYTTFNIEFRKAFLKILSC

Structure (SMILES)	half-life at 1 μM ([1]; CD-1, liver microsomes, pH 7.4, Mouse liver microsome 0.5 mg/mL, compound 1 μM, NADPH/UDPGA, read-out: Half life (t1/2)) [h]	microsomal CLint at 1 μM ([1]; CD-1, liver microsomes, pH 7.4, Mouse liver microsome, note: Slow <8.8, Rapid >48.0, read-out: Intrinsic clearance rate (CLint)) [µL/min/mg]	Remaining (%, 120 min) ([1]; Mouse liver microsome, 120 min) [%]	EC50 (D3 receptor) [nM]	CAR value (Rats F344) [%]	EF (Rats F344) [%]	MTD at 14 days [2] [mg/kg]	Main target organs for toxicity (SD rats; [3])	Main toxic responses: blood counts (SD rats; [3])	Main toxic responses: body weight, food intake and body temperature (SD rats; [3])	Main toxic responses: coagulation function (SD rats; [3])	Accumulation (SD rats; SD rats, 14 days intragastric, 2, 10 or 30 mg/kg)	Average exposure versus dose (SD rats; SD rats, female and male, D1 and D14)
CC(C)(O)C(=O)N[C@H]1CC[C@H](CCN2CCN(c3cccc4sccc34)CC2)CC1 [Example 41, N-(Trans-4-(2-(4-(benzo[b]thiophen-4-yl)piperazin-1-yl)ethyl)cyclohexyl)-2-hydroxy-2-methylpropanamide]	2.72	21.3	80.6	–	–	–	–	–	–	–	–	–	–
O=C(N[C@H]1CC[C@H](CCN2CCN(c3cccc4sccc34)CC2)CC1)C1(O)CC1 [Example 42, N-(Trans-4-(2-(4-(benzo[b]thiophen-4-yl)piperazin-1-yl)ethyl)cyclohexyl)-1-hydroxycyclopropane-1-carboxamide]	–	–	–	1.1	46.5	0	30	the lungs and adrenal glands	WBC, Lymph, Retic and PLT are decreased	body weight, food intake and body temperature are decreased	FIB wis decreased, and APTT is shortened	no accumulation	increased with the increase of the dose
